Test results taken from PMC9931769, “Bacterial origins of thymidylate metabolism in Asgard archaea and Eukarya” (Nature Communications, 2023).

T1: Psyn ThyX (Promethearchaeum syntrophicum, UniProt A0A5B9D7C8)
T1 sequence (A0A5B9D7C8 1-298): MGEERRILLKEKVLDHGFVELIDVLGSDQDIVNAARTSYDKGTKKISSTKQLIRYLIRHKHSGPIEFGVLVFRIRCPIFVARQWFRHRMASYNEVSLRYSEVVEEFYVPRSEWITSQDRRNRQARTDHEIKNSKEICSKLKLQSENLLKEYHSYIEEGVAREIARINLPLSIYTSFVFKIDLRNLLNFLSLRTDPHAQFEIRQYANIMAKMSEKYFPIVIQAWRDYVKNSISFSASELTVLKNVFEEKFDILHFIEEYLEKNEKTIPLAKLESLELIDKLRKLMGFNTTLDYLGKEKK


Assays:
Psyn ThyX = molecular target: T1, Psyn ThyX; test: inhibition of NADPH oxidation, absorbance at […] nm; format: biochemical
purified protein = substrate: O=c1ccn([C@H]2C[C@H](O)[C@@H](COP(=O)(O)O)O2)c(=O)[nH]1; test: purified protein; format: biochemical, Promethearchaeum syntrophicum; details: 50 mM sodium phosphate pH 8, 300 mM NaCl, 2 mM MgCl2, 50 μM FAD, 750 μM NADPH, 0.4 μM enzyme, 25 °C

| inhibition at 200 µM (Psyn ThyX) [%] | Molecule | Km (purified protein) [nM] |
| --- | --- | --- |
| > 50 | Nc1nc2c(c(=O)[nH]1)N[C@@H](CNc1ccc(C(=O)N[C@@H](CCC(=O)O)C(=O)O)cc1)CN2 [H4folate] |  |
| > 50 | Nc1nc2c(c(=O)[nH]1)N1CN(c3ccc(C(=O)N[C@@H](CCC(=O)O)C(=O)O)cc3)C[C@H]1CN2 [CH2H4folate] |  |
|  | Psyn ThyX (Promethearchaeum syntrophicum) (protein) MGEERRILLKEKVLDHGFVELIDVLGSDQDIVNAARTSYDKGTKKISSTKQLIRYLIRHKHSGPIEFGVLVFRIRCPIFVARQWFRHRMASYNEVSLRYSEVVEEFYVPRSEWITSQDRRNRQARTDHEIKNSKEICSKLKLQSENLLKEYHSYIEEGVAREIARINLPLSIYTSFVFKIDLRNLLNFLSLRTDPHAQFEIRQYANIMAKMSEKYFPIVIQAWRDYVKNSISFSASELTVLKNVFEEKFDILHFIEEYLEKNEKTIPLAKLESLELIDKLRKLMGFNTTLDYLGKEKK | 235 ± 35 |
